Measured values reported in publication PMC4877007, “A Minimal Threshold of c-di-GMP Is Essential for Fruiting Body Formation and Sporulation in Myxococcus xanthus” (PLoS Genetics, 2016).

Key:
DmxB = biological target: T1, DmxB (Myxococcus xanthus, UniProt Q1D603, R210A); assay: TLC of [α-32P]-GTP products (diguanylate cyclase assay); assay type: biochemical; conditions: labelled compound; I-site mutant; 1 mM GTP, 10 μM protein, 10 mM MgCl2, 300 mM NaCl, pH 8.0, 30°C
T1 construct: gene MXAN_3735; full-length, DmxB-His6 from pET24b(+) (pDJS30), made in E. coli Rosetta 2(DE3), Ni-NTA; N-terminal receiver, C-terminal GGDEF

EpsI/Nla24 = biological target: T2, EpsI/Nla24 (Myxococcus xanthus, UniProt Q1CVM8); assay: SPR (Biacore T200), steady-state affinity fit; assay type: binding; conditions: labelled compound: biotinylated c-di-GMP immobilised on streptavidin chip, protein as analyte; paper states KD as that of c-di-GMP; 10 mM HEPES, 150 mM NaCl, 2 mM MgCl2, pH 6.8, 25°C
T2 construct: calculated 50 kDa; receiver, AAA+ and HTH domains
T2 sequence (Q1CVM8 entry or part of it): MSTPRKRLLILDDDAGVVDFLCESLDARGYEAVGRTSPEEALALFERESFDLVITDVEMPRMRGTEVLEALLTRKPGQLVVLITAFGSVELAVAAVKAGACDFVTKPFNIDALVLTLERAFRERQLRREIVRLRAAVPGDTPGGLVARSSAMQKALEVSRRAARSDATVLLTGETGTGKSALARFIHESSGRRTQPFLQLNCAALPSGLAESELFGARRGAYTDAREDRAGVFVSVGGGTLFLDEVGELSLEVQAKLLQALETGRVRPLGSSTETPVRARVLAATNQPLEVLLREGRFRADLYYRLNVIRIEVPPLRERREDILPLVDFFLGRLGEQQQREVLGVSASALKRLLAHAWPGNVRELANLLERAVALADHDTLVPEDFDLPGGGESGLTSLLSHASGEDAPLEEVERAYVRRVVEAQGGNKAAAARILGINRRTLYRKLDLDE

T1 sequence (Q1D603 entry or part of it R210A): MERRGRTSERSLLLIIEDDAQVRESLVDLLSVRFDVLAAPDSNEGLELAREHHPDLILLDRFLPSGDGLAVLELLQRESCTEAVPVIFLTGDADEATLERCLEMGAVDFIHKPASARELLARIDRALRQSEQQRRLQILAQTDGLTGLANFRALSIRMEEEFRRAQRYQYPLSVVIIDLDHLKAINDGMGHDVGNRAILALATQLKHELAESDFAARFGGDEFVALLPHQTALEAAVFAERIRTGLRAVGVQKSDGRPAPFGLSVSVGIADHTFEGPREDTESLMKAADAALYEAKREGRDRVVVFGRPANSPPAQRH

Row | Compound | TLC of [α-32P]-GTP products (diguanylate cyclase assay) (DmxB) | Kd (EpsI/Nla24) [nM]
1 | Nc1nc2c(ncn2[C@@H]2O[C@H](COP(=O)(O)OP(=O)(O)OP(=O)(O)O)[C@@H](O)[C@H]2O)c(=O)[nH]1 [GTP] | the I-site mutant had slightly increased DGC activity in vitro in comparison to the WT | –
2 | biotinylated c-di-GMP | – | 530 ± 60
